Assay results reported in ChEMBL document CHEMBL1201861, “Genomics of Drug Sensitity in Cancer screening data, Wellcome Trust Sanger Institute”.
pIC50: −log10 of the molar value.

Assays:
Assay in all cases: cells
Ca9-22 = assay type: functional, cell-based, Homo sapiens; settings: Homo sapiens, Ca9-22;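 note: growth inhibition of Ca9-22 cells, read out with a cell viability assay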
Description: SANGER: Inhibition of human Ca9-22 cell growth in a cell viability assay.

D283 Med = assay type: functional, cell-based, Homo sapiens; settings: Homo sapiens, D283 Med
Description: SANGER: Inhibition of human D-283MED cell growth in a cell viability assay.

DoTc2-4510 = assay type: functional, cell-based, Homo sapiens; settings: Homo sapiens, DoTc2-4510
G-361 = assay type: functional, cell-based, Homo sapiens; settings: Homo sapiens, G-361
G-402 = assay type: functional, cell-based, Homo sapiens; settings: Homo sapiens, G-402
Description: SANGER: Inhibition of human G-402 cell growth in a cell viability assay.

GI-1 = assay type: functional, cell-based, Homo sapiens; settings: Homo sapiens, GI-1;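 note: growth inhibition of human GI-1 cells, measured with a cell viability readout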
Description: SANGER: Inhibition of human GI-1 cell growth in a cell viability assay.

H-EMC-SS = assay type: functional, cell-based; settings: Homo sapiens
Description: SANGER: Inhibition of human H-EMC-SS cell growth in a cell viability assay.

KALS-1 = assay type: functional, cell-based, Homo sapiens; settings: Homo sapiens, KALS-1;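 note: growth inhibition of KALS-1 cells, determined with a cell viability assay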
KNS-62 = assay type: functional, cell-based; settings: Homo sapiens;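 note: inhibition of cell growth, read out with a cell viability assay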
Description: SANGER: Inhibition of human KNS-62 cell growth in a cell viability assay.

KU-19-19 = assay type: functional, cell-based, Homo sapiens; settings: Homo sapiens, KU-19-19
Description: SANGER: Inhibition of human KU-19-19 cell growth in a cell viability assay.

KURAMOCHI = assay type: functional, cell-based; settings: Homo sapiens;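 note: growth inhibition of KURAMOCHI cells, read out with a cell viability assay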
Description: SANGER: Inhibition of human KURAMOCHI cell growth in a cell viability assay.

Lu-65 = assay type: functional, cell-based; settings: Homo sapiens;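 note: growth inhibition of Lu-65 cancer cells, read out by a cell viability assay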
Description: SANGER: Inhibition of human LU-65 cell growth in a cell viability assay.

MOLT-13 = assay type: functional, cell-based; settings: Homo sapiens;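 note: IC50 for suppression of MOLT-13 cell growth, read out with a cell viability assay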
Description: SANGER: Inhibition of human MOLT-13 cell growth in a cell viability assay.

NB12 = assay type: functional, cell-based, Homo sapiens; settings: Homo sapiens, NB12;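 note: growth inhibition of human NB12 cells, read out by a cell viability assay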
Description: SANGER: Inhibition of human NB12 cell growth in a cell viability assay.

NB17 = assay type: functional, cell-based; settings: Homo sapiens;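 note: growth inhibition of NB17 cells, read out with a cell viability assay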
Description: SANGER: Inhibition of human NB17 cell growth in a cell viability assay.

NCI-H1299 = assay type: functional, cell-based, Homo sapiens; settings: Homo sapiens, NCI-H1299;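 note: growth inhibition of human NCI-H1299 cells, read out by a cell viability assay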
Description: SANGER: Inhibition of human NCI-H1299 cell growth in a cell viability assay.

NCI-H1666 = assay type: functional, cell-based; settings: Homo sapiens;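 note: growth inhibition of the cell line, read out with a cell viability assay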
Description: SANGER: Inhibition of human NCI-H1666 cell growth in a cell viability assay.

NCI-H1703 = assay type: functional, cell-based, Homo sapiens; settings: Homo sapiens, NCI-H1703;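 note: growth inhibition of NCI-H1703 cells, read out via a cell viability assay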
Description: SANGER: Inhibition of human NCI-H1703 cell growth in a cell viability assay.

NCI-H2009 = assay type: functional, cell-based, Homo sapiens; settings: Homo sapiens, NCI-H2009;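 note: cell viability assay measuring inhibition of NCI-H2009 cell growth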
Description: SANGER: Inhibition of human NCI-H2009 cell growth in a cell viability assay.

OAW-28 = assay type: functional, cell-based, Homo sapiens; settings: Homo sapiens, OAW-28;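 note: growth inhibition of OAW-28 cells, read out with a cell viability assay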
Description: SANGER: Inhibition of human OAW-28 cell growth in a cell viability assay.

OAW-42 = assay type: functional, cell-based, Homo sapiens; settings: Homo sapiens, OAW-42;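 note: growth inhibition of OAW-42 cells, read out with a cell viability assay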
Description: SANGER: Inhibition of human OAW-42 cell growth in a cell viability assay.

OC-314 = assay type: functional, cell-based; settings: Homo sapiens
Description: SANGER: Inhibition of human OC-314 cell growth in a cell viability assay.

PANC-08-13 = assay type: functional, cell-based, Homo sapiens; settings: Homo sapiens, PANC-08-13;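 note: cell growth inhibition, measured with a cell viability assay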
Description: SANGER: Inhibition of human PANC-08-13 cell growth in a cell viability assay.

SAS = assay type: functional, cell-based, Homo sapiens; settings: Homo sapiens, SAS;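 note: growth inhibition of SAS cells, read out with a cell viability assay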
Description: SANGER: Inhibition of human SAS cell growth in a cell viability assay.

SW1990 = assay type: functional, cell-based, Homo sapiens; settings: Homo sapiens, SW1990;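 note: cell growth inhibition determined with a viability assay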
Description: SANGER: Inhibition of human SW1990 cell growth in a cell viability assay.

A4-Fuk = assay type: functional, cell-based; settings: Homo sapiens;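 note: growth inhibition of A4-Fuk cells, read out by a cell viability assay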
Description: SANGER: Inhibition of human A4-Fuk cell growth in a cell viability assay.

CAKI-1 = assay type: functional, cell-based, Homo sapiens; settings: Homo sapiens, CAKI-1;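 note: growth inhibition of CAKI-1 cells, measured by a cell viability assay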
Description: SANGER: Inhibition of human CAKI-1 cell growth in a cell viability assay.

YH-13 = assay type: functional, cell-based; settings: Homo sapiens;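 note: cell viability readout of growth suppression in the human YH-13 cell line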
Description: SANGER: Inhibition of human YH-13 cell growth in a cell viability assay.

Kasumi 1 = assay type: functional, cell-based; settings: Homo sapiens;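 note: growth inhibition of human Kasumi-1 cells, read out by a cell viability assay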
Description: SANGER: Inhibition of human KASUMI-1 cell growth in a cell viability assay.

Measured: pIC50

CCOc1nc(NC(=O)Cc2cc(OC)ccc2OC)cc(N)c1C#N
not listed: Kasumi 1
< 5.00: all other assays above

CC(=O)O[C@@H]1[C@@H](OC(C)=O)[C@@H](O)[C@H](Oc2c(-c3ccc(O)cc3)oc3cc(O)cc(O)c3c2=O)O[C@H]1C
not listed: Kasumi 1
< 5.00: all other assays above

CN(C)C/C=C/C(=O)Nc1cc2c(Nc3ccc(F)c(Cl)c3)ncnc2cc1O[C@H]1CCOC1 [AFATINIB]
7.08: Ca9-22
6.90: Lu-65
6.62: MOLT-13
6.49: DoTc2-4510
6.32: SAS
8.04: Kasumi 1
< 6.30: all other assays above

O=C(NOCC1CC1)c1ccc(F)c(F)c1Nc1ccc(I)cc1Cl [CI-1040]
5.80: A4-Fuk
5.89: H-EMC-SS
5.07: CAKI-1
5.50: KU-19-19
6.43: G-361
5.22: NCI-H1666
5.15: DoTc2-4510
5.30: MOLT-13
5.53: Ca9-22
6.40: Kasumi 1
5.60: KNS-62
< 5.00: all other assays above

Nc1ccn([C@@H]2O[C@H](CO)[C@@H](O)[C@@H]2O)c(=O)n1 [CYTARABINE]
7.30: NCI-H1703
6.47: GI-1
6.97: SAS
6.44: D283 Med
6.92: CAKI-1
5.80: DoTc2-4510 | NCI-H1666
6.17: NCI-H1299
6.19: G-402
6.49: Ca9-22
6.48: YH-13
5.93: A4-Fuk
6.40: OC-314
6.84: H-EMC-SS
5.90: OAW-42
not listed: KURAMOCHI
< 5.70: all other assays above

C=CCNC1=C2C[C@@H](C)C[C@H](OC)[C@H](O)[C@@H](C)/C=C(\C)[C@H](OC(N)=O)[C@@H](OC)/C=C\C=C(/C)C(=O)NC(=CC1=O)C2=O [TANESPIMYCIN]
6.92: SW1990
6.79: NCI-H1299
6.07: NCI-H2009
6.89: NCI-H1666
6.64: G-361
6.84: GI-1
6.68: DoTc2-4510
6.94: KALS-1
6.03: Lu-65
6.06: NB17
7.32: G-402
7.24: YH-13
6.78: OC-314
6.02: KURAMOCHI
6.27: PANC-08-13
6.90: SAS
6.49: KNS-62 | CAKI-1
6.38: NCI-H1703
not listed: Kasumi 1
< 6.00: all other assays above
